Results published in patent US20170283440A1, “CARM1 INHIBITORS AND USES THEREOF” (Epizyme, Inc., priority 2014, published 2017).
Read-outs that look alike come from different tables or passages of the source.

Assays:
[1] = test system: asymmetric di-methyl PABP1 in RKO cells; test: RKO methylation assay (In Cell Western for asymmetric di-methyl PABP1); type: cell-based; details: 48 hours incubation, read-out: Cellular IC50
Text: RKO adherent cells were purchased from ATCC (American Type Culture Collection), Manassas, Va., USA. DMEM/Glutamax medium, penicillin-streptomycin, heat inactivated fetal bovine serum, 0.05% trypsin and D-PBS were purchased from Life Technologies, Grand Island, N.Y., USA. Odyssey blocking buffer, 800CW goat anti-rabbit IgG (H+L) antibody, and Licor Odyssey infrared scanner were purchased from Licor Biosciences, Lincoln, Nebr., USA. Asymmetric di-methyl PABP1 antibody was purchased from Cell Signaling Technology, Danvers, Mass., USA. Methanol was purchased from VWR, Franklin, Mass., USA. 10% Tween 20 was purchased from KPL, Inc., Gaithersburg, Md., USA. Paraformaldehyde (PFA) was purchased from EM Sciences. DRAQ5 was purchased from Biostatus Limited, Leicestershire, UK.
RKO adherent cells were maintained in growth medium (DMEM/Glutamax medium supplemented with 10% v/v heat inactivated fetal bovine serum and 100 units/mL penicillin-streptomycin) and cultured at 37° C. under 5% CO2.
Compound (100 nL) from a 96-well source plate was added directly to 384 well cell plate. Plates were incubated at 37° C., 5% CO2 for 48 hours. After two days of incubation, plates were brought to room temperature outside of the incubator for ten minutes and blotted on paper towels to remove cell media. Cells were fixed for 20 minutes at room temperature by adding 50 ul of 8% PFA followed by aspiration of supernatant with the Biotek EL406 plate washer. Cells were then permeabilized by addition of 50 μL of ice cold 100% methanol directly to each well and incubated for 30 min at room temperature. After 30 min, plates were transferred to a Biotek EL406 plate washer and washed 2 times with 100 μL per well of wash buffer (IX PBS). Next 60 μL per well of Odyssey blocking buffer (Odyssey Buffer with 0.1% Tween 20 (v/v)) were added to each plate and incubated 1 hour at room temperature. Blocking buffer was removed and 20 μL per well of primary antibody was added (asymmetric-methyl PABP1) diluted 1:400 in Odyssey buffer with 0.1% Tween 20 (v/v)) and plates were incubated overnight (16 hours) at 4° C. Plates were washed 5 times with 100 μL per well of wash buffer. Next 20 μL per well of secondary antibody was added (1:800 800CW goat anti-rabbit IgG (H+L) antibody, 1:2000 DRAQ5 in Odyssey buffer with 0.1% Tween 20 (v/v)) and incubated for 1 hour at room temperature. The plates were washed 5 times with 100 μL per well wash buffer then 2 times with 100 μL per well of water. Plates were allowed to dry at room temperature then imaged on the Licor Odyssey machine which measures integrated intensity at 700 nm and 800 nm wavelengths. Both 700 and 800 channels were scanned.
First, the ratio for each well was determined by:
Each plate included fourteen control wells of DMSO only treatment (minimum inhibition) as well as fourteen control wells for maximum inhibition treated with 20 μM of a reference compound. The average of the ratio values for each control type was calculated and used to determine the percent […] for each test well in the plate. Reference compound was serially diluted three-fold in DMSO for a total of nine test concentrations, beginning at 20 μM.
Percent inhibition was determined and IC50 curves were generated using triplicate wells per concentration of compound.

[2] = target: T1, Human CARM1 (PRMT4) (Homo sapiens, UniProt Q86X55); test: CARM1 enzyme assay on peptide substrate (3H-SAM Flashplate); type: biochemical; details: CARM1 0.25 nM, 3H-SAM 30 nM, peptide 250 nM; read-out: Biochem IC50
T1 construct: Flag-CARM1-His was eluted with 200 ug/ml FLAG peptide in buffer A; made in house; host or cells: HEK 293F cells infected with recombinant baculovirus (pFastBacMam)
Text: S-adenosylmethionine (SAM), S-adenosylhomocysteine (SAH), bicine, Tween20, dimethylsulfoxide (DMSO), bovine skin gelatin (BSG), sodium butyrate and Tris(2-carboxyethyl)phosphine hydrochloride solution (TCEP) were purchased from Sigma-Aldrich at the highest level of purity possible. ^3H-SAM was purchase from American Radiolabeled Chemicals with a specific activity of 80 Ci/mmol. 384-well streptavidin Flashplates were purchased from PerkinElmer.
Peptide representative of human histone H3 residues 16-30 was synthesized with an N-terminal linker-affinity tag motif and a C-terminal amide cap by 21st Century Biochemicals. The peptide was purified by high-performance liquid chromatography (HPLC) to greater than 95% purity and confirmed by liquid chromatography mass spectrometry (LC-MS). The sequence was Biot-Ahx-[…]-amide and contained a monomethylated arginine at position 26 (SEQ ID NO.:1).
Human CARM1 (PRMT4) (NM_199141.1) transcript clone was amplified from an HEK 293 cDNA library, incorporating a flanking 5′ sequence encoding a FLAG tag ([…]) (SEQ ID NO.:2) fused directly to Ala 2 of CARM1 and 3′ sequence encoding a hexa His sequence ([…]) (SEQ ID NO.:3) fused directly to Ser 608. The gene sequence encoding isoform1 containing a deletion of amino acids 539-561 was amplified subsequently and subcloned into pFastBacMam (Viva Biotech).
Recombinant baculovirus were generated according to Bac-to-Bac kit instructions (Life Technologies). Protein over-expression was accomplished by infecting exponentially growing HEK 293F cell culture at 1.3×10^6 cell/ml with virus (MOI=10) in the presence of 8 mM sodium butyrate. Infections were carried out at 37° C. for 48 hours, harvested by centrifugation, and stored at −80° C. for purification.
Column was washed with 500 mM NaCl in buffer A and Flag-CARM1-His was eluted with 200 ug/ml FLAG peptide in buffer A. Pooled fractions were dialyzed in 20 mM Tris, 150 mM NaCl, 5% glycerol and 1 mM DTT, pH 7.8. The purity of recovered protein was 94.
The assays were all performed in a buffer consisting of 20 mM Bicine (pH=7.6), 1 mM TCEP, 0.005% BSG, and 0.002% Tween 20, prepared on the day of use. Compounds in 100% DMSO (1 ul) were spotted into a polypropylene 384-well V-bottom plates (Greiner) using a Platemate Plus outfitted with a 384-channel head (Thermo Scientific). DMSO (1 ul) was added to Columns 11, 12, 23, 24, rows A-H for the maximum signal control and 1 ul of SAH, a known product and inhibitor of CARM1, was added to columns 11, 12, 23, 24, rows I—P for the minimum signal control. A cocktail (40 ul) containing the CARM1 enzyme was added by Multidrop Combi (Thermo-Fisher). The compounds were allowed to incubate with CARM1 for 30 min at room temperature, then a cocktail (10 ul) containing ^3H-SAM and peptide was added to initiate the reaction (final volume=51 ul). The final concentrations of the components were as follows: CARM1 was 0.25 nM, ^3H-SAM was 30 nM, peptide was 250 nM, SAH in the minimum signal control wells was 1 mM, and the DMSO concentration was 2%. The assays were stopped by the addition of non-radiolabeled SAM (10 ul) to a final concentration of 300 uM, which dilutes the ^3H-SAM to a level where its incorporation into the peptide substrate is no longer detectable. 50 ul of the reaction in the 384-well polypropylene plate was then transferred to a 384-well Flashplate and the biotinylated peptides were allowed to bind to the streptavidin surface for at least 1 hour before being washed once with 0.1% Tween20 in a Biotek ELx405 plate washer. The plates were then read in a PerkinElmer TopCount plate reader to measure the quantity of ^3H-labeled peptide bound to the Flashplate surface, measured as disintegrations per minute (dpm) or alternatively, referred to as counts per minute (cpm).
where dpm=disintegrations per minute, cmpd=signal in assay well, and min and max are the respective minimum and maximum signal controls. […]

T1 sequence (Q86X55 other isoform, or with tags, fused parts or gaps): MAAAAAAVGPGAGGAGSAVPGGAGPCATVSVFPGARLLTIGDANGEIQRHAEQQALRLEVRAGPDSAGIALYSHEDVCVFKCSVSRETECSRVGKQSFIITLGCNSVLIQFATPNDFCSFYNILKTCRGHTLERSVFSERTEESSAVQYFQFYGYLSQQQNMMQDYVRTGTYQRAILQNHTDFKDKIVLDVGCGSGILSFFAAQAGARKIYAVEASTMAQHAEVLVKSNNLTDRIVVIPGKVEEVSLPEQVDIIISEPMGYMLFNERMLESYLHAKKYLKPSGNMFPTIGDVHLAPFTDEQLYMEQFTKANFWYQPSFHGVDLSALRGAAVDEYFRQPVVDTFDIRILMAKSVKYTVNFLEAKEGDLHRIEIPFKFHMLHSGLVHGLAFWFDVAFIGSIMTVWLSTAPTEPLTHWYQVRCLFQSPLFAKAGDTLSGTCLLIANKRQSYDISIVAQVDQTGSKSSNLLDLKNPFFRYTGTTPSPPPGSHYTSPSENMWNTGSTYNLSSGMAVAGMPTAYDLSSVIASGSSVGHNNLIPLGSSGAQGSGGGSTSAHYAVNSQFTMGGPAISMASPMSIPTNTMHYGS

Row | SMILES | IC50 ([1]; Homo sapiens) [µM] | IC50 [2] [µM] | IC50 [1] [µM]
1 | Cc1cc(C)c(CNC(=O)c2cc(-c3cccc(OCC(O)CN)c3)nc3c2cnn3C(C)C)c(=O)[nH]1 (stereo not drawn) [Example 2-8] | > 20 | < 0.1 | 
2 | CNCC(O)COc1cc(OC)cc(-c2cc(N(C)C3CCOCC3)n3ncc(C4CC4)c3n2)c1 (stereo not drawn) [Example 2-9] | > 20 | < 0.1 | 
3 | CNCC(O)COc1cccc(-c2cc(N3CCOCC3)c3c(C)nn(C(C)C)c3n2)c1 (stereo not drawn) [Example 3-2] | 10 to 20 | < 0.1 | 
4 | CC(C)n1ncc2c(C(=O)NCC3CCOCC3)cc(-c3cccc(OCC(O)CN)c3)nc21 (stereo not drawn) [Example 3-3] | > 20 | 0.1 to 1 | 
5 | CNCC(O)COc1cc(OC)cc(-c2cc(N(C)c3cncnc3)c3cnn(C(C)C)c3n2)c1 (stereo not drawn) [Example 3-4] | 10 to 20 | < 0.1 | 
6 | CNCC(O)COc1cccc(-c2nc(NC3CCOCC3)c3cnn(C(C)(C)C)c3n2)c1 (stereo not drawn) [Example 3-5] |  | < 0.1 | 5 to 10
7 | CNCC(O)COc1cc(-c2cc(N3CCOCC3)n3ncc(C(C)C)c3n2)cc(C2CC2)c1 (stereo not drawn) [Example 3-6] | > 20 | < 0.1 | 
8 | CNCC(O)COc1cc(OC)cc(-c2cc(N3CCOCC3)nc3c(C4CC4)cnn23)c1 (stereo not drawn) [Example 3-7] | 10 to 20 | < 0.1 | 
9 | CNCC(O)COc1cccc(-c2cc(NCC#N)c3cnn(C(C)C)c3n2)c1 (stereo not drawn) [Example 3-8] | > 20 | 0.1 to 1 | 
10 | CNCC(O)COc1cccc(-c2cc(N(C)Cc3ccccn3)c3cnn(C(C)C)c3n2)c1 (stereo not drawn) [Example 3-9] | 10 to 20 | < 0.1 | 
11 | CNCC(O)COc1cccc(-c2cc(NC3CCOCC3)c3c(C)nn(C(C)C)c3n2)c1 (stereo not drawn) [Example 4-2] | 10 to 20 | < 0.1 | 
12 | Cc1cc(OCC(O)CN)cc(-c2cc(N3CCOCC3)c3cnn(C(C)C)c3n2)c1 (stereo not drawn) [Example 4-4] | 10 to 20 | < 0.1 | 
13 | CNCC(O)COc1cccc(-c2cc(-c3cnc4[nH]ccc4c3)nc3c(C(C)C)cnn23)c1 (stereo not drawn) [Example 4-7] | > 20 | < 0.1 | 
14 | CC(C)c1cnn2c(N3CCOCC3)cc(-c3cccc(OCC(O)CN)c3)nc12 (stereo not drawn) [Example 4-8] | > 20 | < 0.1 | 
15 | CNCC(O)COc1cccc(-c2cc(N(C)C3CCOCC3)nc(N3CCOCC3)n2)c1 (stereo not drawn) [Example 4-9] | > 20 | < 0.1 | 
16 | CNCC(O)COc1cccc(-c2cc(NC3CCOCC3)c3c(C#N)nn(C(C)C)c3n2)c1 (stereo not drawn) [Example 5-2] | > 20 | 0.1 to 1 | 
17 | COc1cc(OCC(O)CN)cc(-c2cc(N3CCOCC3)c3cnn(C(C)C)c3n2)c1 (stereo not drawn) [Example 5-4] | 10 to 20 | < 0.1 | 

Row | SMILES | IC50 ([1]; Homo sapiens) [µM] | IC50 [2] [µM] | IC50 [1] [µM]
18 | CNCC(O)COc1cccc(-c2nc(N3[C@@H]4CC[C@H]3COC4)c3cnn(C4CC4)c3n2)c1 (stereo partly drawn) [Example 5-5] | > 20 | 0.1 to 1 | 
19 | CNCC(O)COc1cc(OC)cc(-c2cc(C)n3ncc(C(C)C)c3n2)c1 (stereo not drawn) [Example 5-6] | > 20 | < 0.1 | 
20 | CC(C)n1ncc2c(N[C@@H]3CO[C@H]4OCC[C@H]43)cc(-c3cccc(OCC(O)CN)c3)nc21 (stereo partly drawn) [Example 5-8] | > 20 | < 0.1 | 
21 | CNCC(O)COc1cc(OC)cc(-c2cc(-c3cnc4[nH]ccc4c3)c3cnn(C(C)C)c3n2)c1 (stereo not drawn) [Example 5-9] | > 20 | < 0.1 | 
22 | CNCC(O)COc1cccc(-c2cc(N(C)C3CCOCC3)c3c(C)nn(C(C)C)c3n2)c1 (stereo not drawn) [Example 6-2] | 10 to 20 | < 0.1 | 
23 | CNCC(O)COc1cc(O)cc(-c2cc(N3CCOCC3)c3cnn(C(C)C)c3n2)c1 (stereo not drawn) [Example 6-4] | > 20 | < 0.1 | 
24 | CC(C)n1ncc2c(N3CCOCC3)nc(-c3cccc(OCC(O)CN)c3)nc21 (stereo not drawn) [Example 6-5] | > 20 | < 0.1 | 
25 | CC(C)n1ncc2c(N[C@@H]3CO[C@H]4OCC[C@H]43)cc(-c3cccc(OCC(O)CN)c3)nc21 (stereo partly drawn) [Example 6-8] |  | < 0.1 | > 20
26 | CNCC(O)COc1cccc(-c2cc(NCc3c(C)cc(C)nc3OC)c3cnn(C(C)C)c3n2)c1 (stereo not drawn) [Example 6-9] | > 20 | < 0.1 | 
27 | CNCC(O)COc1cc(N)cc(-c2cc(NC3CCOCC3)c3cnn(C(C)C)c3n2)c1 (stereo not drawn) [Example 7-4] | > 20 | < 0.1 | 
28 | CC(C)n1ncc2c(NC3CCOC3)nc(-c3cccc(OCC(O)CN)c3)nc21 (stereo not drawn) [Example 7-5] | > 20 | < 0.1 | 
29 | CNCC(O)COc1cccc(-c2cc(N3CCOCC3)n3ncc(C(C)C)c3n2)c1 (stereo not drawn) [Example 7-6] | > 20 | 0.1 to 1 | 
30 | CC(C)n1ncc2c(N3CCOCC3)cc(-c3cc(F)cc(OCC(O)CN)c3)nc21 (stereo not drawn) [Example 7-8] | > 20 | < 0.1 | 
31 | CNCC(O)COc1cccc(-c2nc(N3CC4CCC(C3)O4)c3cnn(C4CC4)c3n2)c1 (stereo not drawn) [Example 7-9] | 10 to 20 | < 0.1 | 
32 | CNCC(O)COc1cc(OC)cc(-c2cc(N3CCOCC3)c3cnn(C(C)C)c3n2)c1 (stereo not drawn) [Example 8-4] | 10 to 20 | < 0.1 | 
33 | CNCC(O)COc1cccc(-c2nc(N3CCOCC3)c3cnn(C(C)C)c3n2)c1 (stereo not drawn) [Example 8-5] | 10 to 20 | < 0.1 | 
